What was measured:
Assay in all cases: relative viability (nuclei count vs DMSO), 5 days (fraction); higher = more cells survive
BAM7 + Palbociclib = compound: CCOC1=CC=CC=C1N=NC2=C(NN(C2=O)C3=NC(=CS3)C4=CC=CC=C4)C [BAM7] + CC(=O)c1c(C)c2cnc(Nc3ccc(N4CCNCC4)cn3)nc2n(C2CCCC2)c1=O [Palbociclib] (partner 0.5 µM)
How it was run: (§1)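 Values are medians from duplicate plates. Each reflects relative viability, defined as the nuclei count of treated wells over that of vehicle wells. Lung cancer cell lines in 1536-well plates were pin-tool dosed one day after seeding with one drug alone or with a fixed anchor-drug dose plus five library-drug doses (not always all listed) in √10 steps, then fixed, stained and imaged at 4× after 5 days.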

[1] = compound: CCn1c(-c2nonc2N)nc2c(C#CC(C)(C)O)ncc(OC[C@H]3CCCNC3)c21 + CC1(C)CCC(c2ccc(Cl)cc2)=C(CN2CCN(c3ccc(C(=O)NS(=O)(=O)c4ccc(N[C@H](CCN5CCOCC5)CSc5ccccc5)c(S(=O)(=O)C(F)(F)F)c4)cc3)CC2)C1 [Navitoclax] (partner 0.5 µM)
How it was run: as §1

[2] = compound: CCn1c(-c2nonc2N)nc2c(C#CC(C)(C)O)ncc(OC[C@H]3CCCNC3)c21 + CS(=O)(=O)N1CCN(Cc2cc3nc(-c4cccc5[nH]ncc45)nc(N4CCOCC4)c3s2)CC1 [Pictilisib] (partner 1 µM)
How it was run: as §1

[3] = compound: CCn1c(-c2nonc2N)nc2c(C#CC(C)(C)O)ncc(OC[C@H]3CCCNC3)c21 + Cc1nc(Nc2ncc(C(=O)Nc3c(C)cccc3Cl)s2)cc(N2CCN(CCO)CC2)n1 [Dasatinib] (partner 0.075 µM)
How it was run: as §1

UMC-11 was tested. Which relative viability (BAM7 + Palbociclib; first compound 0.5 µM) did it give?
Its relative viability is 0.32.

And the relative viability (BAM7 + Palbociclib; first compound 5 µM)?
Its relative viability is 0.341.

What about the relative viability (BAM7 + Palbociclib; first compound 15.81 µM) of the same cell line?
The relative viability was 0.342.

And the relative viability (BAM7 + Palbociclib; first compound 50 µM)?
Its relative viability is 0.336.

What about the relative viability ([1]; first compound 0.01 µM) of the same cell line?
The relative viability was 0.323.

What about the relative viability ([1]; first compound 0.03162 µM) of the same cell line?
Its relative viability is 0.288.

What about the relative viability ([1]; first compound 0.1 µM) of the same cell line?
The relative viability was 0.323.

What about the relative viability ([1]; first compound 0.3162 µM) of the same cell line?
Its relative viability is 0.29.

And the relative viability ([1]; first compound 1 µM)?
Its relative viability is 0.3.

And the relative viability ([2]; first compound 0.01 µM)?
The relative viability was 0.778.

And the relative viability ([2]; first compound 0.03162 µM)?
Its relative viability is 0.681.

And the relative viability ([2]; first compound 0.1 µM)?
The relative viability was 0.771.

What about the relative viability ([2]; first compound 0.3162 µM) of the same cell line?
Its relative viability is 0.758.

And the relative viability ([2]; first compound 1 µM)?
The relative viability was 0.935.

And the relative viability ([3]; first compound 0.01 µM)?
Its relative viability is 0.449.

And the relative viability ([3]; first compound 0.03162 µM)?
The relative viability was 0.498.

And the relative viability ([3]; first compound 0.1 µM)?
Its relative viability is 0.438.

And the relative viability ([3]; first compound 0.3162 µM)?
The relative viability was 0.449.

And the relative viability ([3]; first compound 1 µM)?
The relative viability was 0.399.
